From patent US6761922B2, “Sweetener compositions containing aspartyl dipeptide ester compounds” (Ajinomoto Co., Inc., priority 1999, dated 2004)
Like-named read-outs stand apart in the source and are kept apart here. Where a SMILES comes first, the peptide text is derived from it.

Legend:
[1] = cited from earlier work; for sweetness intensity, times that of sucrose by weight: reported in prior publications
[2] = Magnification of sweetness intensity stated or used for calculating the sweetness of compositions; details: for magnification of sweetness intensity of the derivative as stated for the formulation: value used as basis of calculation, vs sucrose
Solubility = assay type: physicochemical; details: 25° C.
[3] = Time required to dissolve completely in 500 ml of water with stirring; assay type: physicochemical; details: 0.0234 g of powder in 500 ml of water, 25° C., 200 rpm
Experimental: When 50 g of the suspension of the derivative (derivative content 0.0234 g) were added to 500 ml of water (25° C.) with stirring (200 rpm), and the time required to dissolve completely was measured, it took 50 seconds. When 0.0234 g of the powder of the derivative 1, as a reference product, were added to 500 ml of water (25° C.) with stirring (200 rpm) in the same way, and the time required to dissolve completely was measured, it took not less than 3 minutes.

[4] = Measurement of the magnification of sweetness intensity in aqueous solution (sensory evaluation against sucrose solutions); assay type: in vivo; details: for magnification of sweetness intensity, times that of sucrose: aqueous solution, PSE 10% concentration, 20 panelists
Experimental: [Method for Determining the Magnification of Sweetness Intensity]
An aqueous solution was prepared by diluting derivative 2 to be PSE 10% concentration (15.5 mg/1000 ml=10/6500 g/100 ml), assuming that the intensity of sweetness of derivative 2 was 6500 times that of sucrose. Separately, aqueous sucrose solutions having sucrose concentrations of (a)6.94%, (b)8.33%, (c)10%, (d)12%, and (e)14.4% were prepared. The sensory evaluation was performed by determining which sucrose solution was closest to the solution of derivative 2 in the sweetness intensity. The result of calculation of the average of points of 20 panelists was 2.25 point.
(§1) The sweetness intensity of the solution of derivative 2 was 8.75% according to the following equation: (10.0−8.33)×0.25+8.33=8.75. Therefore, the magnification of sweetness of derivative 2 was 5600 (=8.75/0.00155) times that of sucrose. According to the same experiment, the magnification of sweetness intensity of derivative 1 was 22600 times that of sucrose. Further, the magnification of sweetness intensity of other derivatives (3 to 9) can be determined in the same manner. And the magnification of sweetness intensity in a cola beverage can be also determined by the same method compared to the control solution of cola beverage containing 10% sucrose.

[5] = Measurement of the magnification of sweetness intensity in cola beverage (sensory evaluation against cola with sucrose); assay type: in vivo; details: control cola beverage containing 10% sucrose
Excerpt: as §1
Incidentally, the composition of cola beverage is as follows.
Incidentally, as for the concentration of the references, the sucrose concentrations of previous (a) to (e) were used.

[6] = Sensory evaluation in coffee against 4% sucrose coffee, after production and after storage; assay type: in vivo; details: 60 days at room temperature, judged from sweetness
Excerpt: And, the sweetener composition in the form of suspension was poured into the sealed container and stood still at room temperature for 60 days.

[7] = Standing test of suspension at room temperature (precipitation); assay type: physicochemical; details: 1.0 weight part in 70 weight parts of water, homogenized, 7 days
[8] = Rate of dissolving and dispersibility of granular products in water; assay type: physicochemical; details: crude powder in hot water; insoluble coagulates formed
Experimental: *1: As for the rate of dissolving, the distilled water was poured in the 500 ml beaker, 1 g of sample was added to the beaker with gentle mixing by magnetic stirring, and the time of dissolving was measured.

[9] = value used as basis of calculation, vs sucrose; cited from earlier work

For `COC(=O)[C@H](Cc1ccccc1)NC(=O)[C@@H](N)CC(=O)O` [Aspartame] (H-Asp-Phe-OMe), the “Magnification of sweetness intensity (vs. sucrose)” value ([1]; reference sweetener in Example 9) is listed as 200, the “sweetness intensity, times that of sucrose by weight” value [1] is listed as 200 times and the “magnification of sweetness intensity at PSE 0.5%” value ([2]; was calculated as) is listed as 360 times.
In the case of `COC(=O)[C@H](Cc1ccccc1)NC(=O)[C@H](CC(=O)O)NCCCc1ccc(OC)c(O)c1` [Derivative 1, N-[N-[3-(3-hydroxy-4-methoxyphenyl)propyl]-L-α-aspartyl]-L-phenylalanine 1-methyl ester], the “solubility against isomerised sugar "Fujikraft"” value (Solubility) is reported as 0.035 g/100 ml, the solubility in water (Solubility) is reported as 0.152 g/100 ml and the “time required to dissolve completely” value [3] is reported as “not less than 3 minutes”. The “magnification of sweetness intensity at PSE 4%” value ([2]; at PSE 4%, was calculated as) was 18500 times, the “magnification of sweetness intensity of the derivative as stated for the formulation” value (from here on “magnification … for the formulation”) [2] was 22600 times and the “magnification of sweetness intensity, times that of sucrose” value [4] was 22600 times. The “Magnification of sweetness intensity relative to sucrose, in aqueous solution” value [4] was 22600, the “Magnification of sweetness intensity relative to sucrose, in cola beverage” value [5] was 22600 and the “stability of the derivative in the suspension” value [6] was “not decomposed”. For the same compound, the precipitation on standing [7] was “all suspended substances were precipitated”.
In the case of `COC(=O)[C@H](Cc1ccccc1)NC(=O)[C@H](CC(=O)O)NCCCc1ccc(OC)cc1` [Derivative 2, N-[N-[3-(4-methoxyphenyl)propyl]-L-α-aspartyl]-L-phenylalanine 1-methyl ester], the solubility in water (Solubility) is reported as 0.009 g/100 ml, the “magnification … for the formulation” value [2] is reported as 5000 times and the “Magnification of sweetness intensity (vs. sucrose)” value ([2]; value used for Example 9 suspension) is reported as 5000. For the same compound, the “sweetness intensity of the solution (sucrose equivalent)” value ([4]; 15.5 mg/1000 ml aqueous solution) was 8.75%, the “magnification of sweetness intensity, times that of sucrose” value [4] was 5600 times and the “Magnification of sweetness intensity relative to sucrose, in aqueous solution” value [4] was 5500. For the same compound, the “Magnification of sweetness intensity relative to sucrose, in cola beverage” value [5] was 4900 and the “time without reaching complete dissolution” value [8] was greater than 5 min.
For `COC(=O)[C@H](Cc1ccccc1)NC(=O)[C@H](CC(=O)O)NCCC(C)(C)c1ccc(OC)c(O)c1` [Derivative 3, N-[N-[3-(3-hydroxy-4-methoxyphenyl)-3-methylbutyl]-L-α-aspartyl]-L-phenylalanine 1-methyl ester], the “Magnification of sweetness intensity relative to sucrose, in aqueous solution” value [4] was 42400 and the “Magnification of sweetness intensity relative to sucrose, in cola beverage” value [5] was 37000.
In the case of `COC(=O)[C@H](Cc1ccccc1)NC(=O)[C@H](CC(=O)O)NCCC(C)(C)c1ccc(O)c(C)c1` [Derivative 4, N-[N-[3-(3-methyl-4-hydroxyphenyl)-3-methylbutyl]-L-α-aspartyl]-L-phenyl alanine 1-methyl ester], the “Magnification of sweetness intensity relative to sucrose, in aqueous solution” value [4] is reported as 43500 and the “Magnification of sweetness intensity relative to sucrose, in cola beverage” value [5] is reported as 29600.
With `COC(=O)[C@H](Cc1ccccc1)NC(=O)[C@H](CC(=O)O)NCCC(C)(C)c1ccc(OC)cc1` [Derivative 5, N-[N-[3-(4-methoxyphenyl)-3-methylbutyl]-L-α-aspartyl]-L-phenylalanine 1-methyl ester] the “Magnification of sweetness intensity relative to sucrose, in aqueous solution” value [4] was 8400 and the “Magnification of sweetness intensity relative to sucrose, in cola beverage” value [5] was 8000.
For `COC(=O)[C@H](Cc1ccccc1)NC(=O)[C@H](CC(=O)O)NCCC(C)(C)c1ccc(O)cc1` [Derivative 6, N-[N-[3-(4-hydroxyphenyl)-3-methylbutyl]-L-α-aspartyl]-L-phenylalanine 1-methyl ester], the “magnification … for the formulation” value [2] was 14000 times, the “Magnification of sweetness intensity relative to sucrose, in aqueous solution” value [4] was 14900 and the “Magnification of sweetness intensity relative to sucrose, in cola beverage” value [5] was 14000.
In the case of `COC(=O)[C@H](Cc1ccccc1)NC(=O)[C@H](CC(=O)O)NCCCc1ccc(OC)cc1O` [Derivative 7, N-[N-[3-(2-hydroxy-4-methoxyphenyl)propyl]-L-α-aspartyl]-L-phenylalanine 1-methyl ester], the “Magnification of sweetness intensity relative to sucrose, in aqueous solution” value [4] is reported as 11100 and the “Magnification of sweetness intensity relative to sucrose, in cola beverage” value [5] is reported as 10600.
With `COC(=O)[C@H](Cc1ccccc1)NC(=O)[C@H](CC(=O)O)NCCCc1ccc(O)c(C)c1` [Derivative 8, N-[N-[3-(3-methyl-4-hydroxyphenyl)propyl]-L-α-aspartyl]-L-phenylalanine 1-methyl ester] the “Magnification of sweetness intensity relative to sucrose, in aqueous solution” value [4] was 18200 and the “Magnification of sweetness intensity relative to sucrose, in cola beverage” value [5] was 15800.
In the case of `COC(=O)[C@H](Cc1ccccc1)NC(=O)[C@H](CC(=O)O)NCCCc1ccc(O)cc1O` [Derivative 9, N-[N-[3-(2,4-dihydroxyphenyl)propyl]-L-α-aspartyl]-L-phenylalanine 1-methyl ester], the “Magnification of sweetness intensity relative to sucrose, in aqueous solution” value [4] is reported as 8000 and the “Magnification of sweetness intensity relative to sucrose, in cola beverage” value [5] is reported as 7500.
In the case of `OC[C@@H](O)[C@@H](O)CO` [Erythritol], the “magnification of sweetness intensity at PSE 0.5%” value ([2]; was calculated as) is reported as 0.75 times.
In the case of `COC(=O)[C@H](Cc1ccccc1)NC(=O)[C@H](CC(=O)O)NCCC(C)(C)C` [Neotame], the “sweetness intensity, times that of sucrose by weight” value [1] is listed as 10000 times.
In the case of `OC[C@H]1O[C@@H](O[C@H]2[C@H](O)[C@@H](O)C(O)O[C@@H]2CO)[C@H](O)[C@@H](O)[C@H]1O` (stereo partly shown) [lactose], the “magnification of sweetness intensity of filler used for calculation” value [9] is listed as 0.2.
For `OC[C@@H](O)[C@@H](O[C@H]1O[C@H](CO)[C@@H](O)[C@H](O)[C@H]1O)[C@H](O)[C@@H](O)CO` [maltitole], the “magnification of sweetness intensity of filler used for calculation” value [9] is given as 0.75.
